Data from ChEMBL document CHEMBL1201862, “PubChem BioAssay data set” (2004).
Where “and” joins values, the source holds several entries; their conditions need not be identical. Identical values can stand only once. Calls of active or inactive are those of the source.

Experiments:
[1] = molecular target: Eukaryotic translation initiation factor 4E (Mus musculus, UniProt P63073); experiment: blockers of eIF4G binding by eIF4E – biochemical, TR-FRET, dose response (AID 855); type: functional;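 note: potency for disrupting eIF4E binding to eIF4GI seen as loss of FRET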
[2] = A Cell Based Secondary Assay To Explore Cytotoxicity of Compounds that Sensitize Mycobacterium Tuberculosis to Beta-Lactam Antibiotics.; type: functional
Escherichia coli = experiment: microbe, parasite or virus in culture
[3] = DRD fibroblast viability loss – cell-based, non-viral oncogenic, luminescence, dose response (AID 1934); type: functional; conditions: Homo sapiens
Vero [4] = experiment: cells; type: functional, cell-based; conditions: Chlorocebus sabaeus
Vero [5] = experiment: cells; type: functional; conditions: Chlorocebus sabaeus
BJ [6] = experiment: BJ-TERT fibroblast viability loss – cell-based, RAS-independent, luminescence, dose response (AID 1933); type: functional; conditions: Homo sapiens
BJ [7] = experiment: BJ-TERT-LT-ST fibroblast viability loss – cell-based, RAS-independent, luminescence, dose response (AID 1935); type: functional; conditions: Homo sapiens;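 note: BJ fibroblasts immortalized with TERT plus LT and ST oncogenes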
BJ [8] = experiment: cells; type: functional, cell-based; conditions: Homo sapiens
[9] = molecular target: T1, Microphthalmia-associated transcription factor (Homo sapiens, UniProt O75030); experiment: reducers of TRPM1 reporter luminescence, concentration series – cell-based, SK-MEL-5, cherry-picked, set 3, MITF inhibitor project, dose response (AID 493073); type: functional;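 note: SK-MEL-5 melanoma cells with luciferase driven by the MITF target TRPM1 promoter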
T1 sequence (O75030 whole entry): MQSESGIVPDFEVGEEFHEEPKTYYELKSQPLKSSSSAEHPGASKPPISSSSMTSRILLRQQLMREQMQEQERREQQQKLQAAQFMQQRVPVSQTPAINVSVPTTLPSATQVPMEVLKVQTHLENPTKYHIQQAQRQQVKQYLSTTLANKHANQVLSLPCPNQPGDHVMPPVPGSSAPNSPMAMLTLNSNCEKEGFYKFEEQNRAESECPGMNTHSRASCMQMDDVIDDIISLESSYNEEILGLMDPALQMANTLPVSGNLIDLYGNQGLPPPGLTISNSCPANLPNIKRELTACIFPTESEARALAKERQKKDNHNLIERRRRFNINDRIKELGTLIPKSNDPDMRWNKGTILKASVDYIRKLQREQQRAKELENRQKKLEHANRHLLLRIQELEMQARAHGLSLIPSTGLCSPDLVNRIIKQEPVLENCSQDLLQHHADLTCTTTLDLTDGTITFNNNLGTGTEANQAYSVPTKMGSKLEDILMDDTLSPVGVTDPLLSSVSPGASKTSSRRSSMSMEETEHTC

[10] = molecular target: Glucose-6-phosphate 1-dehydrogenase (Homo sapiens, UniProt P11413); experiment: inhibition of Homo sapiens G6PD, dose series – biochemical, fluorescence, selectivity assay for P. falciparum G6PD inhibitor project, dose response (AID 504792); type: functional
[11] = Luminescence Cell-Based Dose Retest to Confirm Inhibitors of Cancer Stem Cells. [Related pubchem assays (depositor defined):AID2717, AID2721]; type: functional; conditions: Homo sapiens
[12] = viability of uninfected HEp-2 cells – cell-based, HTS, cytotoxicity control for RSV inhibitor project, dose response (AID 2410); type: functional; conditions: human respiratory syncytial virus
[13] = microbe, parasite or virus in culture; type: functional; conditions: Mycobacterium tuberculosis
[14] = non-specific 3'UTR reporter inhibition in Clone20-Shn3RL – cell-based, Renilla luciferase, cherry-picked, counter-screen for Shn3 inhibitor project, dose response (AID 624133); type: functional
[15] = reduction of Shn3 3'UTR-driven luciferase in osteoblasts – cell-based, Clone20 osteoblasts, firefly luciferase, cherry-picked, dose response (AID 624132); type: functional;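 note: firefly luciferase luminescence from reporter carrying the Shn3 3'UTR in osteoblasts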
cells [16] = type: functional, cell-based
[17] = loss of viability in HepG2 cells – cell-based, CellTiter-Glo, cherry-picked, cytotoxicity control for Shn3 inhibitor project, dose response (AID 624134); type: functional
cells [18] = type: functional, cell-based; remark: listed apart in the source
Hexokinase = molecular target: T2, Hexokinase (Trypanosoma brucei, UniProt Q38C41); experiment: Confirmation assay for inhibitors of Trypanosoma brucei hexokinase 1-Analogue-first series. [Related pubchem assays (depositor defined):AID1430, AID1632, AID2516, AID2560, AID2579, AID2600, AID449725, AID492951]; type: functional
T2 sequence (Q38C41 whole entry): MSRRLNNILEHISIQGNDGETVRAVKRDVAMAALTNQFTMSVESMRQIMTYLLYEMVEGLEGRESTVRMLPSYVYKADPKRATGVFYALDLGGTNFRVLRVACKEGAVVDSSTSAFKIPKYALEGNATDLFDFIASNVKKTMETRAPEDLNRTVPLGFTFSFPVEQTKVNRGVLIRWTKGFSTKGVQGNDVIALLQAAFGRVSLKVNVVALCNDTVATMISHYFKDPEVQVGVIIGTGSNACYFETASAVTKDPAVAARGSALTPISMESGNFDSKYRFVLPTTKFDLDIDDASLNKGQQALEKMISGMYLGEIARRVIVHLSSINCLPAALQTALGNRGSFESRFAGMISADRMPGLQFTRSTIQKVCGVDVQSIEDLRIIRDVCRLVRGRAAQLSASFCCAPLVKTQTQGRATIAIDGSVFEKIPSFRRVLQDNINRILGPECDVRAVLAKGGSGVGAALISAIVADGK

[19] = molecular target: T3, Polyadenylate-binding protein 1 (Homo sapiens, UniProt P11940); experiment: MLLE binding blockers, Cy5 peptide tracer – biochemical, fluorescence polarization, Cy5-PAM2 peptide, secondary, miRNA deadenylation inhibitor project, dose response (AID 602260); type: functional; conditions: read-out: IC50_Mean
[20] = molecular target: T3, Polyadenylate-binding protein 1; experiment: MLLE domain peptide-binding blockers, IC50 – biochemical, fluorescence polarization, FITC-PAM2 peptide, dose response (AID 602259); type: functional; conditions: read-out: IC50_Mean
[21] = NIH-3T3 fibroblast cytotoxicity, dose response, cytotoxicity control, cell-based, fluorescence, Alamar Blue, secondary assay (AID 2327); type: functional;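 note: NIH-3T3 mouse fibroblasts cultured with fluconazole at 8 µg/mL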
[22] = fluconazole-exposed Candida albicans growth modulators – fluorescence, retest, confirmation (AID 2467); type: functional, cell-based
[23] = molecular target: T4, Heat shock factor protein 1 (Mus musculus, UniProt P38532); experiment: enhancement of HSF1-driven luciferase signal – cell-based, NIH3T3, luminescence, dose retest, confirmation (AID 435004); type: functional;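 note: stress induced by proteasome inhibitor MG132 added 30 min after compound; luciferase reporter driven by HSF1 response element in NIH3T3 cells; actives raise luminescence as potentiators of the MG132 stress response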
T4 sequence (P38532 whole entry): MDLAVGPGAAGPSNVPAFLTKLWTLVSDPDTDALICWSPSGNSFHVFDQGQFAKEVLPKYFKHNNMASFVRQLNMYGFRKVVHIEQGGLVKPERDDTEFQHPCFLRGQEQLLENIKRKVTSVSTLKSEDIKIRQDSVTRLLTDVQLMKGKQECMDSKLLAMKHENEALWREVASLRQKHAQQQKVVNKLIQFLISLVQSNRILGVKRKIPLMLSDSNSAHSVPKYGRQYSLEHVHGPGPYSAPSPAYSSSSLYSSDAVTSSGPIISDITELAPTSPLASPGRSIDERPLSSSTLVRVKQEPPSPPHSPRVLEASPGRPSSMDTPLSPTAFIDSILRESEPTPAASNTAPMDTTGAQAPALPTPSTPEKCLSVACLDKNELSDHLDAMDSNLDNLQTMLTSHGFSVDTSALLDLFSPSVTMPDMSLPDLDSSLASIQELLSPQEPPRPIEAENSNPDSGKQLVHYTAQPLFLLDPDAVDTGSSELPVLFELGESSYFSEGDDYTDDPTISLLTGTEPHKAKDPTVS

[24] = THP-1 cell cytotoxicity, dose response, cytotoxicity control for non-replicating M. tuberculosis project (AID 489025); type: functional
[25] = molecular target: Heat shock protein HSP 90-alpha (Homo sapiens, UniProt P07900); type: functional, organism-based

T3 sequence (P11940 whole entry, the tested form may be a part): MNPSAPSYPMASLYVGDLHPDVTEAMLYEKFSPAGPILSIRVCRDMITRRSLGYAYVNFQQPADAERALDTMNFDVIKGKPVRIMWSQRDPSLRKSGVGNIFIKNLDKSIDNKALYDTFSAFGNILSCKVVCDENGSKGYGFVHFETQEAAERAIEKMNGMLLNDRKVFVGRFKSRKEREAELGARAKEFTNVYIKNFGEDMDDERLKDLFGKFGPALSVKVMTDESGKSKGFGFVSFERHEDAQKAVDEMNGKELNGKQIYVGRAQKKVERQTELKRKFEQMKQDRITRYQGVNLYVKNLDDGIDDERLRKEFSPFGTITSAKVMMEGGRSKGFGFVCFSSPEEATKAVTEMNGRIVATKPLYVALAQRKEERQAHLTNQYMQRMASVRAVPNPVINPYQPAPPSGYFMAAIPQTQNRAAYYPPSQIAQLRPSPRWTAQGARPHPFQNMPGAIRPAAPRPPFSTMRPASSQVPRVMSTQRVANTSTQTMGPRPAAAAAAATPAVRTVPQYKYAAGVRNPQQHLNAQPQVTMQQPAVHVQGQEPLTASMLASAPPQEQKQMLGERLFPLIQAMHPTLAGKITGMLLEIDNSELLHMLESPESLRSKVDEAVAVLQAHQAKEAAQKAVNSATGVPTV
Glucose-6-phosphate 1-dehydrogenase, sequence (P11413 whole entry): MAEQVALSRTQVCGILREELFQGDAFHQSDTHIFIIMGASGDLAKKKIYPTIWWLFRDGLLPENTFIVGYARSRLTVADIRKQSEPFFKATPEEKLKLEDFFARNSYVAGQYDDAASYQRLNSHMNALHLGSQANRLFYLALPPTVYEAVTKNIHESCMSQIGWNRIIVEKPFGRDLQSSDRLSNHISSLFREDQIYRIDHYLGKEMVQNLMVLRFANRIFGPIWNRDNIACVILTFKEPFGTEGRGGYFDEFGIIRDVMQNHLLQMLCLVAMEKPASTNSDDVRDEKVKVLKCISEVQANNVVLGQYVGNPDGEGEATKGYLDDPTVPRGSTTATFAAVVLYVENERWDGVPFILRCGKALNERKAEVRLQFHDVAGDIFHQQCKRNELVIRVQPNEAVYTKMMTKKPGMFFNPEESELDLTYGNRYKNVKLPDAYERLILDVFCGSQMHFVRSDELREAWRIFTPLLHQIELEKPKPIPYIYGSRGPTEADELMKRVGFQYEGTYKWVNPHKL
Eukaryotic translation initiation factor 4E, sequence (P63073 whole entry): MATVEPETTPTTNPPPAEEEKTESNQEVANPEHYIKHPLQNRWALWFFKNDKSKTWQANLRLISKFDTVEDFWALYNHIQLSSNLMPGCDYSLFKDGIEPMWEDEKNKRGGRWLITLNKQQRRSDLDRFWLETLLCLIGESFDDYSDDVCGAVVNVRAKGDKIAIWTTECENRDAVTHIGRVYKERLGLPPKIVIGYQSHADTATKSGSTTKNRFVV

O=C(N/N=C/c1ccc2c(c1)OCO2)c1sc2cc(Cl)ccc2c1Cl
IC50 [1]: > 64 µM (inactive) | CC50 [2]: > 40 µM (active)

CCC1Oc2nc(SC)nnc2-c2ccccc2N1C(=O)c1ccccc1 (stereo not drawn)
AC50 (Escherichia coli): 24.1 µM (active)

CC(C)Cn1c2c(c(O)c(C(=O)Nc3ccc(F)cc3)c1=O)CCCC2
CC50 [2]: > 40 µM (active)

Cc1cccc(NC(=O)[C@H](Cc2c[nH]c3ccccc23)NC(=O)[C@@H]2Cc3ccccc3CN2)c1
EC50 [3]: 71.3 µM (active) | IC50 (Vero [4]): 4.39 µM (active) | CC50 (Vero [5]): 19.4 µM (active) | EC50 (BJ [6]): 28.3 µM (active) | EC50 (BJ [7]): > 150 µM (not active) | EC50 (BJ [8]): 26.9 µM (active)

CCCN(CC(=O)Nc1ccccc1C)C(=O)CCl
EC50 [3]: 8.23 µM (active) | CC50 (Vero [5]): 9.42 µM (active) | EC50 (BJ [6]): 4 µM (active) | AC50 [9]: 4.04 µM (active) | EC50 (BJ [7]): > 150 µM (inconclusive) | EC50 (BJ [8]): 14.9 µM (inconclusive)

COC(CN(C)C(=O)C1CCCN(S(=O)(=O)c2ccc3c(c2)oc(=O)n3C)C1)OC (stereo not drawn)
AC50 (Escherichia coli): 27.3 µM (active)

N#CC(C#N)=C1C=CC=CN1/C(=C\c1ccccc1Cl)C(=O)c1ccccc1
IC50 (Vero [4]): > 25 µM (active) | CC50 (Vero [5]): 24.5 µM (active) | IC50 [10]: > 80 µM (inactive)

COc1ccc(C(=O)/C=C/c2cc(OC)c(O)c(OC)c2)c(F)c1
IC50 (Vero [4]): > 25 µM (active) | AC50 [11]: 7.21 µM (active) | CC50 (Vero [5]): 18.7 µM (active) | CC50 [12]: 14.3 µM (active) | CC50 [13]: 25.7 µM (active)

CN(C)S(=O)(=O)c1ccc(C(=O)/C=C/c2cccnc2)cc1
EC50 [3]: 10.4 µM (active) | EC50 (BJ [6]): 10.4 µM (active) | CC50 [2]: 17.5 µM (active) | EC50 (BJ [7]): > 150 µM (inconclusive) | EC50 (BJ [8]): > 150 µM (not active)

O=C(NCc1cccc(Cl)c1)c1cnn2c1NC(c1ccco1)CC2C(F)(F)F (stereo not drawn)
AC50 (Escherichia coli): 24.2 µM (active)

CCOC(=O)c1c(-c2ccccc2)oc2cc(CN(C)C)c(O)c(CN(C)C)c12
AC50 [14]: 5.5 µM (active) | AC50 [15]: 7.81 µM (active) | EC50 (cells [16]): 28 µM (active) | AC50 [17]: 21.2 µM (active) | EC50 (cells [18]): > 350 µM (not active)

COCc1cc(C)n(CC(=O)NC(C)c2ccccc2)c(=O)c1C#N (stereo not drawn)
AC50 (Escherichia coli): 27.1 µM (active)

COc1cc(/C=N/NC(=O)c2cc(-c3cccc(OC(C)C)c3)nc3ccccc23)ccc1O
IC50 (Vero [4]): > 25 µM (active) | CC50 (Vero [5]): > 25 µM (active) | CC50 [12]: 15.5 µM (active)

CN(C)c1cccc(NC(=O)Cn2sc3ccccc3c2=O)c1
IC50 (Hexokinase): 8.21 µM (active)

CCCCc1c(O)nc(SCC(=O)c2ccccc2)nc1O
IC50 [19]: > 66 µM (inactive) | IC50 [20]: > 66 µM (inactive) | AC50 (Escherichia coli): 30.3 µM (active)

Cc1cccc(CCNC(=O)Cn2ncc3c4cc(C)ccc4nc-3c2O)c1
EC50 (cells [16]): > 350 µM (not active) | EC50 (cells [18]): > 350 µM (not active)

O=C(NNC(=S)NC(=O)c1sc2ccccc2c1Cl)c1ccc(Cl)cc1
IC50 (Vero [4]): 10 µM (active) | CC50 (Vero [5]): > 25 µM (active)

CCc1sc2nc(SCC(=O)Nc3cc(C)on3)n(-c3cccc(OC)c3)c(=O)c2c1C
CC50 [2]: 36.3 µM (active)

CCCn1c(SCC(=O)Nc2ccccc2CC)nnc1C(C)C
EC50 (cells [16]): > 350 µM (not active) | EC50 (cells [18]): > 350 µM (not active)

CC1(c2ccc(C(=O)Nc3cc(Cl)ccc3C(=O)O)cc2)CC1
IC50 (Hexokinase): 8 µM (active) and 4.24 µM (active)

Nc1nc(CN2CCN(c3ccccn3)CC2)nc(Nc2ccc(F)cc2)n1
EC50 [21]: > 150 µM (inconclusive) | EC50 [22]: > 38 µM (not active)

COc1ccc(-n2nc3c(N4CCC(C(=O)N5CCC(C)CC5)CC4)nnc(C)c3c2C)cc1
EC50 [23]: > 260 µM (inactive) | EC50 [21]: > 160 µM (inactive) | EC50 [22]: > 38 µM (not active)

O=c1c(/N=N/c2ccc(O)cc2)c(-c2ccccc2)[nH]n1-c1ccc([N+](=O)[O-])cc1
CC50 [2]: 17.7 µM (active)

COc1ccccc1NC(=O)Cn1sc2ccccc2c1=O
IC50 (Hexokinase): 6.28 µM (active)

Cc1cccc(NCc2ccc([N+](=O)[O-])s2)c1
CC50 [24]: > 40 µM (active)

O=c1c2ccccc2[s+]([O-])n1-c1ccc(Cl)cc1 (stereo not drawn)
IC50 (Hexokinase): > 25 µM (inactive)

O=C(/C=C/c1ccccn1)c1cc(Br)ccc1O
AC50 [25]: 2.03 µM (active) | CC50 [2]: > 40 µM (active)
